# In ChEMBL document CHEMBL4765419, “Design, synthesis and bioactivity evaluation of novel arylalkene-amide derivatives as dual-target antifungal inhibitors” (Eur J Med Chem, 2020):
# Calls of active or inactive are those of the source. No cut-off for these calls is given here.
# Legend:
# [1] = Toxicity in mouse infected with Candida albicans assessed as change in lung morphology administered via abdomen for 7 days by H and E staining based histological analysis; settings: in vivo, ip, 168 h, time 7 day
# [2] = Stability in human plasma incubated for 120 mins; format: ADME, cell-free; settings: read-out: Stabilty
# Candida tropicalis = experiment: Antifungal activity against Candida tropicalis assessed as inhibition of microbial growth by two fold broth microdilution method; format: functional
# Nakaseomyces glabratus = experiment: Antifungal activity against Candida glabrata assessed as inhibition of microbial growth by two fold broth microdilution method; format: functional
# [3] = Toxicity in mouse infected with Candida albicans assessed as change in heart morphology administered via abdomen for 7 days by H and E staining based histological analysis; settings: in vivo, ip, 168 h, time 7 day
# Candida albicans [4] = experiment: In vivo antifungal activity against Candida albicans infected in mouse assessed as reduction in tissue infection injected via abdomen for 7 days by H and E staining based histological analysis; format: functional, organism-based; settings: time 7.0 day
# [5] = Hepatotoxicity in mouse infected with Candida albicans assessed as effect on alanine aminotransferase level in plasma administered via abdomen for 7 days (reference value: 102 +/-9.2 IU/L); format: toxicity; settings: ip, 168 h, time 7 day
# [6] = Stability in human plasma incubated for 60 mins; format: ADME, cell-free; settings: read-out: Stabilty
# Candida albicans [7] = experiment: Antifungal activity against Candida albicans assessed as inhibition of microbial growth by two fold broth microdilution method; format: functional
# Aspergillus fumigatus = experiment: Antifungal activity against Aspergillus fumigatus assessed as inhibition of microbial growth by two fold broth microdilution method; format: functional
# Candida albicans SC5314 [8] = experiment: Inhibition of SE/CYP51 in Candida albicans ATCC SC5314 assessed as lanosterol level at 4 ug/ml incubated for 16 hrs by LC/MS analysis (reference value: 6.62 %); design: scale not given: the % may be the effect or the level left; settings: dose 4.0 µg/ml
# [9] = Toxicity in mouse infected with Candida albicans assessed as change in spleen morphology administered via abdomen for 7 days by H and E staining based histological analysis; settings: in vivo, ip, 168 h, time 7 day
# Candida albicans SC5314 [10] = experiment: Inhibition of SE/CYP51 in Candida albicans ATCC SC5314 assessed as unidentified sterol level at 4 ug/ml incubated for 16 hrs by LC/MS analysis (reference value: 7.03 %); design: scale not given: the % may be the effect or the level left; settings: dose 4.0 µg/ml
# Candida albicans [11] = experiment: Antifungal activity against fluconazole-resistant Candida albicans 632 assessed as inhibition of microbial growth by two fold broth microdilution method; format: functional
# Candida albicans [12] = experiment: Antifungal activity against fluconazole-resistant Candida albicans CaR assessed as inhibition of microbial growth by two fold broth microdilution method; format: functional
# Candida albicans [13] = experiment: Antifungal activity against fluconazole-resistant Candida albicans 901 assessed as inhibition of microbial growth by two fold broth microdilution method; format: functional
# [14] = Toxicity in mouse infected with Candida albicans assessed as change in kidney morphology administered via abdomen for 7 days by H and E staining based histological analysis; settings: in vivo, ip, 168 h, time 7 day
# Candida albicans [15] = experiment: Antifungal activity against Candida albicans ATCC SC5314 assessed as decrease in fungal cell density by polarizing microscopy; format: functional, organism-based
# [16] = Toxicity in mouse infected with Candida albicans assessed as change in liver morphology administered via abdomen for 7 days by H and E staining based histological analysis; settings: in vivo, ip, 168 h, time 7 day
# Candida albicans [17] = experiment: Antifungal activity against fluconazole-resistant Candida albicans 17# assessed as inhibition of microbial growth by two fold broth microdilution method; format: functional
# [18] = Hepatotoxicity in mouse infected with Candida albicans assessed as aspartate aminotransferase level in plasma administered via abdomen for 7 days (reference value: 109.4 +/-4.8 IU/L); format: toxicity; settings: ip, 168 h, time 7 day
# [19] = Toxicity in mouse infected with Candida albicans assessed as change in body weight administered via abdomen for 7 days; settings: in vivo, ip, 168 h, time 7 day
# Candida albicans SC5314 [20] = experiment: Inhibition of SE/CYP51 in Candida albicans ATCC SC5314 assessed as ergosterol level at 4 ug/ml incubated for 16 hrs by LC/MS analysis (reference value: 79.43 %); design: scale not given: the % may be the effect or the level left; settings: dose 4.0 µg/ml
# Candida albicans [21] = experiment: In vivo antifungal activity against Candida albicans infected in mouse assessed as disappearance of infected positions injected via abdomen for 7 days by H and E staining based histological analysis; format: functional, organism-based; settings: time 7.0 day
# Candida albicans [22] = experiment: In vivo antifungal activity against Candida albicans infected in mouse assessed as uniform cell distribution injected via abdomen for 7 days by H and E staining based histological analysis; format: functional, organism-based; settings: time 7.0 day
# [23] = Renal toxicity in mouse infected with Candida albicans assessed as effect on blood urea nitrogen level administered via abdomen for 7 days (reference value: 6.7 +/-0.3 mmol/L); settings: in vivo, ip, 168 h, time 7 day
# Pichia kudriavzevii = experiment: Antifungal activity against Candida krusei assessed as inhibition of microbial growth by two fold broth microdilution method; format: functional
# Candida albicans [24] = experiment: Antifungal activity against fluconazole-resistant Candida albicans 904 assessed as inhibition of microbial growth by two fold broth microdilution method; format: functional
# Candida albicans SC5314 [25] = experiment: Inhibition of SE/CYP51 in Candida albicans ATCC SC5314 assessed as squalene level at 4 ug/ml incubated for 16 hrs by LC/MS analysis (reference value: 2.25 %); design: scale not given: the % may be the effect or the level left; settings: dose 4.0 µg/ml
# Candida albicans [26] = experiment: In vivo antifungal activity against Candida albicans infected in mouse assessed as disappearance of cell nuclear aggregation injected via abdomen for 7 days by H and E staining based histological analysis; format: functional, organism-based; settings: time 7.0 day
# Candida albicans SC5314 [27] = experiment: Inhibition of SE/CYP51 in Candida albicans ATCC SC5314 assessed as eburicol level at 4 ug/ml incubated for 16 hrs by LC/MS analysis (reference value: 4.67 %); design: scale not given: the % may be the effect or the level left; settings: dose 4.0 µg/ml
compound,measurement,setting,value
O=C(/C=C/c1cccc2ccccc12)NC(Cn1ccnc1)C(=O)Nc1ccccc1 (stereo unspecified),Activity,[1],Non-Toxic
same,remaining at 2 h,[2],84.1%
same,MIC,Candida tropicalis,0.25 µg/mL
same,MIC,Nakaseomyces glabratus,0.125 µg/mL
same,Activity,[3],Non-Toxic
same,Activity,Candida albicans [4],Active
same,Activity,[5],105 IU/L
same,remaining at 1 h,[6],89.7%
same,MIC,Candida albicans [7],0.125 µg/mL
same,MIC,Aspergillus fumigatus,4 µg/mL
same,Activity,Candida albicans SC5314 [8],14.5%
same,Activity,[9],Non-Toxic
same,Activity,Candida albicans SC5314 [10],5.46%
same,MIC,Candida albicans [11],8 µg/mL
same,MIC,Candida albicans [12],8 µg/mL
same,MIC,Candida albicans [13],8 µg/mL
same,Activity,[14],Non-Toxic
same,Activity,Candida albicans [15],Active
same,Activity,[16],Non-Toxic
same,MIC,Candida albicans [17],4 µg/mL
same,Activity,[18],101.5 IU/L
same,Activity,[19],Non-Toxic
same,Activity,Candida albicans SC5314 [20],10.7%
same,Activity,Candida albicans [21],Active
same,Activity,Candida albicans [22],Active
same,Activity,[23],6.9 mmol/L
same,MIC,Pichia kudriavzevii,0.25 µg/mL
same,MIC,Candida albicans [24],> 16 µg/mL
same,Activity,Candida albicans SC5314 [25],29.1%
same,Activity,Candida albicans [26],Active
same,Activity,Candida albicans SC5314 [27],40.1%
O=C(/C=C/c1cccc2ccccc12)NCC(=O)NCc1ccncc1,MIC,Candida tropicalis,0.25 µg/mL
same,MIC,Nakaseomyces glabratus,0.25 µg/mL
same,MIC,Candida albicans [7],0.25 µg/mL
same,MIC,Aspergillus fumigatus,4 µg/mL
same,MIC,Pichia kudriavzevii,0.5 µg/mL
O=C(/C=C/c1ccc2c(c1)OCCO2)NC(Cn1ccnc1)C(=O)NCc1ccccc1 (stereo unspecified),MIC,Candida tropicalis,0.5 µg/mL
same,MIC,Nakaseomyces glabratus,1 µg/mL
same,MIC,Candida albicans [7],0.5 µg/mL
same,MIC,Aspergillus fumigatus,> 16 µg/mL
same,MIC,Pichia kudriavzevii,2 µg/mL
CN(CC(=O)NCc1cccnc1)C(=O)/C=C/c1ccc2ccccc2c1,MIC,Candida tropicalis,1 µg/mL
same,MIC,Nakaseomyces glabratus,1 µg/mL
same,MIC,Candida albicans [7],0.5 µg/mL
same,MIC,Aspergillus fumigatus,> 16 µg/mL
same,MIC,Pichia kudriavzevii,0.5 µg/mL
O=C(/C=C/c1ccc2ccccc2c1)NC(Cn1ccnc1)C(=O)Nc1ccccc1 (stereo unspecified),MIC,Candida tropicalis,0.5 µg/mL
same,MIC,Nakaseomyces glabratus,0.25 µg/mL
same,MIC,Candida albicans [7],0.5 µg/mL
same,MIC,Aspergillus fumigatus,8 µg/mL
same,MIC,Pichia kudriavzevii,0.5 µg/mL
CN(CC(=O)NCc1cccnc1)C(=O)/C=C/c1ccc2c(c1)OCCO2,MIC,Candida tropicalis,0.5 µg/mL
same,MIC,Nakaseomyces glabratus,0.5 µg/mL
same,MIC,Candida albicans [7],2 µg/mL
same,MIC,Aspergillus fumigatus,> 16 µg/mL
same,MIC,Pichia kudriavzevii,4 µg/mL
